# According to patent publication US10343992B2, “1-cyano-pyrrolidine compounds as USP30 inhibitors” (MISSION THERAPEUTICS LIMITED, priority 2015, dated 2019):
# Molecular target: USP30 (Homo sapiens (Human), UniProt Q70CQ3)
# Assay: USP30 biochemical FP or FI IC50 assay
# Settings: read-out: IC50 range
# Method: USP30 Biochemical IC50 Assay
# Dilution plates were prepared at 21 times the final concentration (2100 μM for a final concentration of 100 μM) in 50% DMSO in a 96-well polypropylene V-bottom plate (Greiner #651201). A typical 8-point dilution series would be 100, 30, 10, 3, 1, 0.3, 0.1, 0.03 μM final. Reactions were performed in duplicate in black 384 well plates (small volume, Greiner 784076) in a final reaction volume of 21 μl. Either 1 μl of 50% DMSO or diluted compound was added to the plate. USP30 was diluted in reaction buffer (40 mM Tris, pH 7.5, 0.005% Tween 20, 0.5 mg/ml BSA, 5 mM—beta-mercaptoethanol) to the equivalent of 0.05 μl/well and 10 μl of diluted USP30 was added to the compound. Enzyme and compound were incubated for 30 min at room temp. Reactions were initiated by the addition of 50 nM of TAMRA labelled peptide linked to ubiquitin via an iso-peptide bond as fluorescence polarisation substrate. Reactions were read immediately after addition of substrate and following a 2 hr incubation at room temperature. Readings were performed on a Pherastar Plus (BMG Labtech). λ Excitation 540 nm; λ Emission 590 nm.
# USP30 Biochemical Fluorescence Intensity IC50 Assay
# Dilution plates were prepared at 21 times the final concentration (2100 μM for a final concentration of 100 μM) in 50% DMSO in a 96-well polypropylene V-bottom plate (Greiner #651201). A typical 8-point dilution series would be 100, 30, 10, 3, 1, 0.3, 0.1, 0.03 μM final. Reactions were performed in duplicate in black 384 well plates (small volume, Greiner 784076) in a final reaction volume of 21 μl.
# Either 1 μl of 50% DMSO or diluted compound was added to the plate. USP30 was diluted in reaction buffer (40 mM Tris, pH 7.5, 0.005% Tween 20, 0.5 mg/ml BSA, 5 mM—beta-mercaptoethanol) to the equivalent of 0.001 μl/well and 10 μl of diluted USP30 was added to the compound. Enzyme and compound were incubated for 30 min at room temp. Reactions were initiated by the addition of Ubiquitin-Rhodamine 110 (U-555; Boston Biochem) at a final concentration of 100 nM. Reactions were read immediately after addition of substrate and following a 2 h incubation at room temperature. Readings were performed on a Pherastar Plus (BMG Labtech). λ Excitation 487 nm; λ Emission 535 nm.
# Chain of USP30 (Q70CQ3 57-517): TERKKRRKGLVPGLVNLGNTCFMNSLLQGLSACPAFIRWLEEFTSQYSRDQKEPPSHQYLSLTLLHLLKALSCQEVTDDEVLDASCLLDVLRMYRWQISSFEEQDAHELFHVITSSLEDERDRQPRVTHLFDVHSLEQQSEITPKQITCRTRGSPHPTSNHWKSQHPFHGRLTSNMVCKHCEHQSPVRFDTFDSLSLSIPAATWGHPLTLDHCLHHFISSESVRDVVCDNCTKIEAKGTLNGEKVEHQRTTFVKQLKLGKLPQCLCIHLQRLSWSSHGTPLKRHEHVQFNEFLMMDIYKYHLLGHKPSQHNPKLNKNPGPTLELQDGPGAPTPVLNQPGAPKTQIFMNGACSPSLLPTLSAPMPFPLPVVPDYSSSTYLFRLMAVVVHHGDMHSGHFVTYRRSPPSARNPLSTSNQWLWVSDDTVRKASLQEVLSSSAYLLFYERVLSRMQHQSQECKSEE
row,SMILES,IC50 [nM]
1,"CO[C@H]1CN(C#N)C[C@@H]1N(C)C(=O)c1ccc(-c2cnn(C)c2)cc1 (relative stereo) [Example 178, N-((trans)-1-cyano-4-methoxypyrrolidin-3-yl)-N-methyl-4-(1-methyl-1H-pyrazol-4-yl)benzamide]",100 to 1000
2,"N#CN1C[C@H]2CCN(C(=O)c3cc(-c4ccccc4)n[nH]3)[C@H]2C1 (stereo in doubt) [Example 246, 1-(3-phenyl-1H-pyrazole-5-carbonyl)hexahydropyrrolo[3,4-b]pyrrole-5(1H)-carbonitrile]",100 to 1000
3,"N#CN1CC[C@@H](NC(=O)c2ccc(-c3ccccc3)cn2)C1 [Example 1, (R)—N-(1-cyanopyrrolidin-3-yl)-5-phenylpicolinamide]",100 to 1000
4,"COc1cc(C(=O)N[C@@H]2CCN(C#N)C2)ccc1-c1cnn(C)c1 [Example 2, (R)—N-(1-cyanopyrrolidin-3-yl)-3-methoxy-4-(1-methyl-1H-pyrazol-4-yl)benzamide]",< 100
5,"N#CN1CCC(NC(=O)c2ccc(-c3ccccc3Cl)cc2)C1 (stereo not drawn) [Example 3, 2′-chloro-N-(1-cyanopyrrolidin-3-yl)-[1,1′-biphenyl]-4-carboxamide]",< 100
6,"CN(Cc1ccccc1)c1ccc(C(=O)NC2CCN(C#N)C2)cn1 (stereo not drawn) [Example 4, 6-(benzyl(methyl)amino)-N-(1-cyanopyrrolidin-3-yl)nicotinamide]",100 to 1000
7,"N#CN1CC[C@@H](NC(=O)N2CC(c3ccccc3)C2)C1 [Example 5, (R)—N-(1-cyanopyrrolidin-3-yl)-3-phenylazetidine-1-carboxamide]",100 to 1000
8,"C[C@@H]1CN(c2ccc(C(=O)N[C@@H]3CCN(C#N)C3)cc2F)C[C@H](C)O1 [Example 6, N—((R)-1-cyanopyrrolidin-3-yl)-4-((cis)-2,6-dimethylmorpholino)-3-fluorobenzamide]",100 to 1000
9,"N#CN1CCC(NC(=O)c2ccc(N3CCC(Oc4ccccc4)CC3)nc2)C1 (stereo not drawn) [Example 22, N-(1-cyanopyrrolidin-3-yl)-6-(4-phenoxypiperidin-1-yl)nicotinamide]",100 to 1000
10,"N#CN1CCC(NC(=O)c2ccnc(N3CCc4ccccc4C3)c2)C1 (stereo not drawn) [Example 27, N-(1-cyanopyrrolidin-3-yl)-2-(3,4-dihydroisoquinolin-2(1H)-yl)isonicotinamide]",100 to 1000
11,"N#CN1CC[C@@H](NC(=O)c2cccc(-c3ccccc3)n2)C1 [Example 29, (R)-N-(1-cyanopyrrolidin-3-yl)-6-phenylpicolinamide]",100 to 1000
12,"N#CN1CC[C@@H](NC(=O)c2cc(-c3ccccc3)ccn2)C1 [Example 30, (R)-N-(1-cyanopyrrolidin-3-yl)-4-phenylpicolinamide]",100 to 1000
13,"N#CN1CC[C@@H](NC(=O)c2ccc(N3CCOCC3)c(F)c2)C1 [Example 32, (R)-N-(1-cyanopyrrolidin-3-yl)-3-fluoro-4-morpholinobenzamide]",100 to 1000
14,"N#CN1CC[C@@H](NC(=O)c2cc(-c3ccccc3)no2)C1 [Example 33, (R)-N-(1-cyanopyrrolidin-3-yl)-3-phenylisoxazole-5-carboxamide]",100 to 1000
15,"N#CN1CC[C@@H](NC(=O)c2cc(-c3ccncc3)on2)C1 [Example 34, (R)-N-(1-cyanopyrrolidin-3-yl)-5-(pyridin-4-yl)isoxazole-3-carboxamide]",100 to 1000
16,"N#CN1CC[C@@H](NC(=O)c2ccc(-c3ccccc3)cc2)C1 [Example 35, (R)-N-(1-cyanopyrrolidin-3-yl)-[1,1′-biphenyl]-4-carboxamide]",< 100
17,"N#CN1CC[C@@H](NC(=O)c2cnc(-c3ccccc3Cl)s2)C1 [Example 37, (R)-2-(2-chlorophenyl)-N-(1-cyanopyrrolidin-3-yl)thiazole-5-carboxamide]",< 100
18,"N#CN1CC[C@@H](NC(=O)c2ccc(-c3ccncc3Cl)cc2)C1 [Example 38, (R)-4-(3-chloropyridin-4-yl)-N-(1-cyanopyrrolidin-3-yl)benzamide]",< 100
19,"COc1cc(C(=O)N[C@@H]2CCN(C#N)C2)ccc1-c1ccncc1Cl [Example 39, (R)-4-(3-chloropyridin-4-yl)-N-(1-cyanopyrrolidin-3-yl)-3-methoxybenzamide]",< 100
20,"COc1cc(C(=O)N[C@@H]2CCN(C#N)C2)ccc1-c1ccnc(C)c1 [Example 40, (R)-N-(1-cyanopyrrolidin-3-yl)-3-methoxy-4-(2-methylpyridin-4-yl)benzamide]",< 100

row,SMILES,IC50 [nM]
1,"COc1cc(C(=O)N[C@@H]2CCN(C#N)C2)ccc1-c1ccnc(N2CCOCC2)c1 [Example 41, (R)-N-(1-cyanopyrrolidin-3-yl)-3-methoxy-4-(2-morpholinopyridin-4-yl)benzamide]",100 to 1000
2,"N#CN1CC[C@@H](NC(=O)c2ccc(F)c(-c3ccncc3)c2)C1 [Example 42, (R)-N-(1-cyanopyrrolidin-3-yl)-4-fluoro-3-(pyridin-4-yl)benzamide]",100 to 1000
3,"Cn1cc(-c2cc(C(=O)N[C@@H]3CCN(C#N)C3)ccc2F)cn1 [Example 43, (R)-N-(1-cyanopyrrolidin-3-yl)-4-fluoro-3-(1-methyl-1H-pyrazol-4-yl)benzamide]",100 to 1000
4,"Cn1cc(-c2ccc(C(=O)N[C@@H]3CCN(C#N)C3)cc2)cn1 [Example 44, (R)-N-(1-cyanopyrrolidin-3-yl)-4-(1-methyl-1H-pyrazol-4-yl)benzamide]",< 100
5,"Cn1cc(-c2cnc(C(=O)N[C@@H]3CCN(C#N)C3)nc2)cn1 [Example 45, (R)-N-(1-cyanopyrrolidin-3-yl)-5-(1-methyl-1H-pyrazol-4-yl)pyrimidine-2-carboxamide]",100 to 1000
6,"N#CN1CC[C@@H](NC(=O)N2CCC(c3ccccc3)C2)C1 (stereo partly drawn) [Example 46, N-((R)-1-cyanopyrrolidin-3-yl)-3-phenylpyrrolidine-1-carboxamide]",100 to 1000
7,"N#CN1CC[C@H](NC(=O)c2ccc(-c3ccncc3)cc2)C1 [Example 47, (S)-N-(1-cyanopyrrolidin-3-yl)-4-(pyridin-4-yl)benzamide]",1000 to 10000
8,"N#CN1CC[C@H](NC(=O)c2cccc(-c3ccccc3)n2)C1 [Example 48, (S)-N-(1-cyanopyrrolidin-3-yl)-6-phenylpicolinamide]",1000 to 10000
9,"CN(C(=O)c1ccc(-c2ccncc2Cl)cc1)[C@@H]1CCN(C#N)C1 [Example 49, (R)-4-(3-chloropyridin-4-yl)-N-(1-cyanopyrrolidin-3-yl)-N-methylbenzamide]",100 to 1000
10,"CN(C(=O)Nc1cn2ccccc2n1)[C@@H]1CCN(C#N)C1 [Example 50, (R)-1-(1-cyanopyrrolidin-3-yl)-3-(imidazo[1,2-a]pyridin-2-yl)-1-methylurea]",100 to 1000
11,"N#CN1C[C@H]2CCN(C(=O)c3ccc(-c4ccccc4)[nH]c3=O)[C@H]2C1 [Example 61, (3aR,6aR)-1-(2-oxo-6-phenyl-1,2-dihydropyridine-3-carbonyl)hexahydropyrrolo[3,4-b]pyrrole-5(1H)-carbonitrile]",100 to 1000
12,"CC(C)C(=O)N(C)c1cccc(C(=O)N[C@@H]2CCN(C#N)C2)c1 [Example 62, (R)—N-(1-cyanopyrrolidin-3-yl)-3-(N-methylisobutyramido)benzamide]",100 to 1000
13,"N#CN1CC[C@@H](NC(=O)c2ncc(-c3ccccc3)cn2)C1 [Example 63, (R)—N-(1-cyanopyrrolidin-3-yl)-5-phenylpyrimidine-2-carboxamide]",100 to 1000
14,"N#CN1CC[C@@H](NC(=O)c2cc(-c3ccncc3)no2)C1 [Example 64, (R)—N-(1-cyanopyrrolidin-3-yl)-3-(pyridin-4-yl)isoxazole-5-carboxamide]",100 to 1000
15,"N#CN1CC[C@@H](NC(=O)c2cc(-c3cccnc3)no2)C1 [Example 65, (R)-N-(1-cyanopyrrolidin-3-yl)-3-(pyridin-3-yl)isoxazole-5-carboxamide]",100 to 1000
16,"N#CN1CC[C@@H](NC(=O)c2cc(-c3ccccn3)no2)C1 [Example 66, (R)-N-(1-cyanopyrrolidin-3-yl)-3-(pyridin-2-yl)isoxazole-5-carboxamide]",100 to 1000
17,"N#CN1CC[C@@H](NC(=O)c2cc(-c3ccccc3)cnn2)C1 [Example 67, (R)—N-(1-cyanopyrrolidin-3-yl)-5-phenylpyridazine-3-carboxamide]",100 to 1000
18,"CN(C(=O)c1ccc(-c2ccccc2)cc1)C1CCN(C#N)C1 (stereo not drawn) [Example 68, N-(1-cyanopyrrolidin-3-yl)-N-methyl-[1,1′-biphenyl]-4-carboxamide]",100 to 1000
19,"C[C@H]1CN(C#N)C[C@@H]1NC(=O)c1ncc(-c2ccccc2)s1 [Example 69, N-((3R,4S)-1-cyano-4-methylpyrrolidin-3-yl)-5-phenylthiazole-2-carboxamide]",1000 to 10000
